Key:
[1] = system: total cholesterol (TC) and triglyceride (TG) level in the rat serum; assay: Determination of the hypolipidemic effect on rats (serum total cholesterol and triglycerides after oral administration); type: in vivo, normolipemic male Wistar rats; conditions: 100 mg/kg oral, three administrations over 3 days, groups of 10 male Wistar rats
Description: 1) Determination of the hypolipidemic effect on rats
The lipid-reducing effect of the test substances was examined on groups each of 10 normolipemic male Wistar rats weighing 200 to 220 g.
The tests were carried out after a 3-week retraining of the eating habits of the animals. The controlled feeding was carried out daily from 8 a.m. to 10 a.m. The test substances were administered at 11 a.m.
The test compounds were absorbed in an aqueous solution of 0.25% agar and 0.84% sodium chloride and administered orally. After three administrations over a period of 3 days blood was extracted from the animals. Cholesterol and triglycerides were determined in the serum with the aid of the "Cobas-Bio" centrifugal analyzer of Hoffmann-La Roche:
a) Cholesterol determination
CHOD-PAP method, enzymatic color test according to J. Siedel et al. (J. Clin. Chem. Clin. Biochem. 19, 838 (1981))
b) Triglyceride determination
Enzymatic cleavage of the triglycerides with the aid of special lipases with subsequent determination of the liberated glycerol according to T. O. Tiffany et al. (Clin. Chem. 20, 476 (1974))

[2] = system: cholesterol biosynthesis in rat liver homogenate; assay: Determination of the inhibition of cholesterol synthesis in rat liver homogenate (14C acetate incorporation); type: biochemical
Description: 2) Determination of the inhibition of cholesterol synthesis
3 g freshly prepared rat liver were homogenized in 6 ml ice-cooled buffer and centrifuged at 20000 * g for 20 minutes. The supernatant was separated off and used for the following determinations.
10 μl of the methanolic test substance solution was pipetted into a mixture of 110 μl supernatant and 300 μl incubation solution and incubated at 37° C. for 20 minutes. Thereafter, 10 μl of a ^14 C acetate solution was pipetted in and incubated for a further 30 minutes. Thereafter, 500 μl ethanolic KOH solution was added to the mixture, further incubated for 60 minutes at 75° C. and thereafter the reaction stopped by cooling in an ice bath. To enable a yield correction to be made for the subsequent extraction of the ^14 C cholesterol forming, ^3 H cholesterol (≈10^-3) was added by pipetting. In addition, 500 μl of an ethanolic solution of cold cholesterol was added. The cholesterol of the mixture was extracted twice with 1 ml petroleum ether, the extract concentrated by evaporating to dryness and taken up in 0.6 ml of an ethanol acetone mixture (1/1). The dissolved cholesterol was then precipitated by means of 1.4 ml of a digitonin solution (=7 mg). After 15 hours at 0° C. the precipitate was centrifuged off, dissolved with 0.5 ml methanol/glacial acetic acid (33/5) and diluted with two ml methanol. The radioactivity of the resulting cholesterol was then determined in […] scintillation liquid (Dimilume) by means of a scintillation counter.
Buffer: 6.8 g KH2 PO4, 0.6 g MgCl2, 0.37 g EDTA, 1.83 g nicotine amide, 51.35 g saccharose and 0.44 ml mercaptoethanol were dissolved in distilled water and diluted to 500 ml (PH =7.2)
Incubation solution: The following were dissolved, in each case individually:
8.6 mg […] with 1.3 ml buffer
10.2 mg NADP with 1.3 ml buffer
39.6 mg glucose-6-phosphate with 0.65 ml buffer
31.6 μl glucose-6-phosphate dehydrogenase (1000 U/0.9 ml) with 0.285 buffer
These solutions were not mixed until immediately prior to use.
^14 C-acetate: Solution: 250 μCi ^14 C-Na-acetate was dissolved by means of 1 ml distilled water, Solution 2: 512.5 mg Na-acetate was dissolved in 10 ml distilled water.
Before the test, 0.1 ml of solution 1 and 0.4 ml of solution 2 were mixed and then mixed with 2 ml distilled water.
Ethanolic KOH: 10 g were dissolved in 100 ml ethanol.
Method: R. E. Dugan et al. Archives Bioch. Biophys. 152 21, (1972)

Compound | Percentage change of total cholesterol (TC) level in the rat serum, X ± SD [1] | Percentage change of triglyceride (TG) level in the rat serum, X ± SD [1] | cholesterol biosynthesis in rat liver homogenate, % Control ([2]; 1*10^-4 Mole/l, 100 µM) | cholesterol biosynthesis in rat liver homogenate, % Control ([2]; 1*10^-5 Mole/l, 10 µM) | cholesterol biosynthesis in rat liver homogenate, % Control ([2]; 1*10^-6 Mole/l, 1 µM) | cholesterol biosynthesis in rat liver homogenate, % Control ([2]; 3*10^-4 Mole/l, 300 µM) | cholesterol biosynthesis in rat liver homogenate, % Control ([2]; 3*10^-5 Mole/l, 30 µM) | cholesterol biosynthesis in rat liver homogenate, % Control ([2]; 3*10^-6 Mole/l, 3 µM) | cholesterol biosynthesis in rat liver homogenate, % Control ([2]; 3*10^-7 Mole/l, 0.3 µM)
CC(C)(C)c1ccc(C(O)CC(O)COc2ccc(C(=O)O)cc2)cc1 (single isomer, unassigned) [Diastereomer A, 1-(4'-tert.butylphenyl)-4-(4'-carboxyphenoxy)-butanediol-1,3] | -39.1 ± 15.5 % Change | -26.4 ± 13.1 % Change | 9 % Control | 36 % Control | 103 % Control | 2 % Control | 14 % Control | 97 % Control | 122 % Control
CC(C)(C)c1ccc(C(O)CC(O)COc2ccc(C(=O)O)cc2)cc1 (single isomer, unassigned) [Diastereomer B, 1-(4'-tert.butylphenyl)-4-(4'-carboxyphenoxy)-butanediol-1,3] | -66.9 ± 8.6 % Change | -29.7 ± 15.5 % Change | – | 42 % Control | – | – | – | – | –
CCOC(=O)C(C)(C)Oc1ccc(Cl)cc1 [Clofibrate, reference compound] | -14.5 + 12.0 % Change | -29.2 + 19.4 % Change | – | – | – | – | – | – | –

From patent US5149865A, “New p-oxibenzoic acid derivatives, process for their preparation and their use as drug” (Klinge Pharma GmbH, priority 1991, dated 1992)
